The text below walks through data of patent US20220288028A1, “A THERAPEUTIC APPROACH FOR TREATING NON-INFECTIOUS OCULAR IMMUNOINFLAMMATORY DISORDERS” (The Schepens Eye Research Institute, Inc., priority 2019, published 2022).

Data set [1] deals with ocular redness. In words: Rabbit model of non-allergic (non-infectious) ocular redness induced by dapiprazole, Ocular Redness Index (ORI). Type of data set: in vivo. The text has this:
(§1) An Image J-based, objective quantification method of ocular redness severity was developed without relying on ophthalmologists' subjective scoring (Amparo, et al. “The Ocular Redness Index: A Novel Automated Method for Measuring Ocular Injection.” Investigative Ophthalmology & Visual Science, 2013, pp. Quick submit: 2017-06-18T21:14:33-0400). This digital scoring method automatically analyzes patient eye images and gives the score as Ocular Redness Index (ORI), which ranges on a continuous centesimal scale from 0 to 100, with 100 the most severe redness. This method has been used in the animal models of ocular redness to evaluate the severity of redness.
(§2) The results obtained can be seen in FIGS. 10-14. In the evaluation of ocular redness in animal models using Ocular Redness Index (ORI) with Image J the following steps. Step 1: The conjunctival image was captured by means of a digital camera and was recorded as an RGB color JPEG image (3264×2448 pixels). […] Step 3: An ROI (Region Of Interest, area inside the yellow circle) was selected as the evaluation area by user, and the program read the red-green-blue (RGB) values of each pixel, converting it to huesaturation-value (HSV) space, and ultimately converted these values into a numeric centesimal value for redness in the selected area automatically. […]

Data set [2] deals with ocular redness. In words: Guinea pig model of allergic ocular redness induced by histamine, Ocular Redness Index (ORI). The note with it: topical 1.0 mg/ml with 1.5 mg/ml histamine instillation, 20 μl; 1 hour; vs untreated induced control. Type of data set: in vivo.
From the text: as §1, §2

For the next data set, the system named is IL-17. The data set is described as follows: Mouse model of DED, topical NK1R antagonist: real-time PCR of conjunctivae. The class given is in vivo, C57BL/6 mice. The note with it: topical 1 μg/μl three times per day; day 14; vs PBS; p=0.001. The procedure: Induction of Dry Eye Disease (DED): DED was induced by housing the mice in a low-humidity (relative humidity: <20%) controlled environment chamber (CEC) with constant airflow of 15 L/min and temperature of 21 to 23° C. for 14 days. Age- and sex-matched mice housed in room air conditions served as controls. Corneal epithelial disease was evaluated using fluorescein (Sigma-Aldrich) staining and scored using the National Eye Institute grading system (NEI, Bethesda, Md.; Chen Y. et al. IFN-gamma-Expressing TH17 Cells Are Required for Development of Severe Ocular Surface Autoimmunity. J Immunol 2017, 199:1163-9). […] Punctate staining was recorded in a masked fashion with the standard National Eye Institute grading system of 0-3 for each of the five areas of the cornea. […]
Real-Time PCR: Bulbar and palpebral conjunctiva, cornea and trigeminal ganglion were harvested from mice and stored in TRIzol reagent (Invitrogen, Carlsbad, Calif.) at −80° C. until RNA was isolated and reverse-transcribed using RNeasy micro kit (Qiagen, Valencia, Calif.) and SuperScript III kit (Invitrogen). […] Samples were analyzed using a real-time PCR system (LightCycler 480 II System; Roche Applied Science, Indianapolis, Ind.), and results were analyzed by the comparative threshold cycle method, using GAPDH as an internal control.

Data set [3] relates to DED mice. The data set is described as follows: Mouse model of DED, topical NK1R antagonist: corneal fluorescein staining (CFS). The note with it: topical 1 μg/μl three times per day, day 4 to 14; at day 7, 10 and 14; vs untreated and PBS-treated; p<0.05. Type of data set: in vivo, C57BL/6 mice. The text has this:
FIGS. 6A, 6B, 7C, 8A-8C, and 9A-9D show the results of evaluating the in vivo therapeutic efficacy of blocking SP signaling in animal models of DED and ocular redness. DED was induced by exposing wild-type mice to desiccating stress using a controlled environment chamber for 14 days. No any other manipulations were used in the model. After 4 days induction, a clinical overt disease developed in mice (art-recognized model) and then a topical NK1R antagonist of either CP-99,994 or L-733,060, 3×/day, started and lasted for 10 days (until day 14). Untreated or PBS-treated mice serve as controls. Clinical severity of the disease was evaluated by clinical fluorescein scoring (CFS) using the National Eye Institute/Industry NEI grading scheme. […]
Induction of Dry Eye Disease (DED): DED was induced by housing the mice in a low-humidity (relative humidity: <20%) controlled environment chamber (CEC) with constant airflow of 15 L/min and temperature of 21 to 23° C. for 14 days. […] Corneal epithelial disease was evaluated using fluorescein (Sigma-Aldrich) staining and scored using the National Eye Institute grading system (NEI, Bethesda, Md.; Chen Y. et al. IFN-gamma-Expressing TH17 Cells Are Required for Development of Severe Ocular Surface Autoimmunity. J Immunol 2017, 199:1163-9). […]

Data set [4] relates to DED mice. The data set is described as follows: Mouse model of DED, topical NK1R antagonist: flow cytometry of cornea, draining lymph nodes and conjunctivae. Type of data set: in vivo, C57BL/6 mice. The note with it: topical 1 μg/μl three times per day, day 14; for frequencies of MHC-II^hi CD11b^+ cells in the cornea: day 4 to 14; for frequencies of TH17 cells in the DLNs / frequencies of mature MHC-II^hi CD11b^+ cells in the DLNs / level of MHC-II expression by CD11b^+ cells in the DLNs: vs PBS. The procedure: Induction of Dry Eye Disease (DED): DED was induced by housing the mice in a low-humidity (relative humidity: <20%) controlled environment chamber (CEC) with constant airflow of 15 L/min and temperature of 21 to 23° C. for 14 days. Age- and sex-matched mice housed in room air conditions served as controls. Corneal epithelial disease was evaluated using fluorescein (Sigma-Aldrich) staining and scored using the National Eye Institute grading system (NEI, Bethesda, Md.; Chen Y. et al. IFN-gamma-Expressing TH17 Cells Are Required for Development of Severe Ocular Surface Autoimmunity. J Immunol 2017, 199:1163-9). 1 μl of 2.5% fluorescein was applied into the lateral conjunctival sac of the mice and after 3 minutes corneas were examined with a slit lamp biomicroscope under cobalt blue light. Punctate staining was recorded in a masked fashion with the standard National Eye Institute grading system of 0-3 for each of the five areas of the cornea.
Topical Treatment with NK1R Antagonist: Mice were assigned to one of four groups (n=5 each). 1 μg/μl of NK1R antagonists CP-99,994, L-733,060 (R&D systems, Minneapolis, MN) or PBS was administered topically three times per day from day 4 to day 14 after DED induction. Untreated DED mice served as controls.
Single Cell Suspension Preparation and Flow Cytometry: Submandibular and cervical draining lymph nodes (DLNs) were harvested and single cell suspensions were prepared. Cells were stimulated with phorbol 12-myristate 13-acetate (PMA, 50 ng/mL; Sigma-Aldrich) and Ionomycin (500 ng/mL; Sigma-Aldrich) for 6 hours in the presence of a commercial protein transport inhibitor (0.7 μL/100 μL media, Golgistop; BD Biosciences, San Jose, Calif.). Conjunctivae were harvested by lifting at the junction of bulbar and palpebral conjunctiva and dissecting along both bulbar and palpebral insertion points (Vannas Scissors; Storz, Bausch & Lomb). Conjunctiva samples were cultured in RPMI (Thermo Fisher Scientific, Waltham, Mass.) supplemented with 10% fetal bovine serum (FBS) and stimulated with PMA (50 ng/mL; Sigma-Aldrich) and Ionomycin (500 ng/mL; Sigma-Aldrich) in the presence of a protein transport inhibitor (0.7 μL/100 μL media, Golgistop; BD Biosciences) at 37° C. for 24 hours. Harvested corneas were digested in RPMI media containing 2 mg/ml collagenase type IV (Sigma-Aldrich) and 2 mg/ml DNase I (Roche) for 1 h at 37° C. The suspension was then filtered through a 70-μm cell strainer. Single-cell suspensions of DLN and cornea were stained with the following antibodies: Brilliant Violet 421-conjugated anti-mouse I-A/I-E (MHC-II), PE-conjugated anti-CD11c (BD Pharmingen, San Jose, Calif.), PerCP/Cy5.5-conjugated anti-CD11b, FITC-conjugated anti-CD4 (BioLegend, San Diego, Calif.), and PE-conjugated anti-interleukin 17A (eBioscience, San Diego, Calif.). Intranuclear staining with PE/Cy7-conjugated anti-Foxp3 (eBioscience) was performed after fixation and permeabilization of cells. Control samples were stained with appropriate isotype-matched antibodies. Stained cells were examined using an LSRII Flow Cytometer (BD Biosciences, Franklin Lakes, N.J., USA), and data were analyzed using commercial Summit software (Summit v4.3; Dako Colorado, Inc., Fort Collins, Colo.).
(Flow cytometry measures light scatter and fluorescence of single cells or particles in a stream.)

Data set [5] deals with corneal epithelial wound healing. The note with it: subconjunctival injection, diabetic mice; cited from earlier work.
For data set [6] the following is noted: prevents use as an eye drop formulation; cited from earlier work.

The structures appear in SMILES notation. Counter-ions that a name gives are not always drawn.

Consider `Ic1ccccc1CN[C@@H]1C2CCN(CC2)[C@@H]1C(c1ccccc1)c1ccccc1` (racemic) [L-703,606], for which the “ocular redness (change in ORI score)” value with ocular redness [1] (topical 1.0 mg/ml with 5% dapiprazole instillation, 40 μl, 1 hour, vs untreated induced control) was “rapidly and consistently ameliorating the ocular redness”; in the data set on ocular redness [2] it was “rapidly and consistently ameliorating the ocular redness”.
Regarding `COc1ccccc1CN[C@H]1CCCN[C@H]1c1ccccc1` [CP-99,994, (2S,3S)-N-[(2-Methoxyphenyl)methyl]-2-phenyl-3-piperidinamine dihydrochloride], the “mRNA expression levels of IL-17 in conjunctivae” value in the data set on IL-17 is reported as “significant reduction”. The “CFS scores and DED severity” value in the data set on DED mice [3] was “significantly reduced CFS scores and DED severity”. In the data set with DED mice [4], the “frequencies of MHC-II^hi CD11b^+ cells in the cornea” value is “significantly lower”, the “frequencies of TH17 cells in the DLNs” value was “significantly decreased”, the “frequencies of mature MHC-II^hi CD11b^+ cells in the DLNs” value is “significant decrease” and the “level of MHC-II expression by CD11b^+ cells in the DLNs” value is “significant decrease”.
Consider `FC(F)(F)c1cc(CO[C@H]2CCCN[C@H]2c2ccccc2)cc(C(F)(F)F)c1` [L-733,060, (2S,3S)-3-[[3,5-bis(Trifluoromethyl)phenyl]methoxy]-2-phenylpiperidine hydrochloride], for which the “mRNA expression levels of IL-17 in conjunctivae” value in the data set on IL-17 is on record as “significant reduction”. Moreover, the “CFS scores and DED severity” value in the data set with DED mice [3] was “significantly reduced CFS scores and DED severity”. Moreover, in the data set on DED mice [4], the “frequencies of MHC-II^hi CD11b^+ cells in the cornea” value was “significantly lower”, the “frequencies of TH17 cells in the DLNs” value is “significantly decreased”, the “frequencies of mature MHC-II^hi CD11b^+ cells in the DLNs” value is on record as “significant decrease” and the “level of MHC-II expression by CD11b^+ cells in the DLNs” value is given as “significant decrease”. Moreover, the “protective role of SP on epithelial healing” value in data set [5] was “significantly inhibits the protective role of SP on epithelial healing”.
As for `C[C@@H](O[C@H]1OCCN(Cc2n[nH]c(=O)[nH]2)[C@H]1c1ccc(F)cc1)c1cc(C(F)(F)F)cc(C(F)(F)F)c1` [MK-869, 5-[[(2R,3S)-2-[(1R)-[3,5-Bis(trifluoromethyl)phenyl]ethoxy]-3-(4-fluorophenyl)-4-morpholinylinyl]methyl]-1,2-dihydro-3H-1,2,4-triazol-3-one], the water solubility entry in data set [6] was “Poor water solubility”.
Turning to `Cc1ccccc1N1CCN(CCc2nnc3n2CCCC3)CC1` [dapiprazole], the “change in ORI score after induction” value in the data set with ocular redness [1] (5% dapiprazole, 40 μl topical, series of increasing concentrations, 1-hour observation, vs PBS) is “highest increase in ORI score”.
